How the values were obtained:
Experiment in all cases: Pre-emergent herbicidal activity (Table A)
Format in all cases: in vivo
Velvetleaf = details: Abutilon theophrasti, pre-emergence, Vele, 11.2 kg/ha, 10-14 days, read-out: herbicidal rating (% inhibition)
Method: (§1) The herbicidal ratings used in Tables A and B were assigned according to a scale based on the percent inhibition of each plant species. The herbicide rating symbols in Tables A and B are defined as follows: […]
(§2) One set of pre-emergent tests was conducted as follows:
(§3) Topsoil was placed in a pan and compacted to a depth of 0.95 to 1.27 cm. from the top of the pan. A predetermined number of seeds of each of several monocotyledonous and dicotyledonous annual plant species and/or vegetative propagules of various perennial plant species were placed on top of the soil. The soil required to level fill a pan after seeding or adding vegetative propagules was weighed into another pan. A known amount of the test compound dissolved or suspended in an organic solvent or water and applied in acetone or water as a carrier was thoroughly mixed with this cover soil, and the herbicide/soil mixture was used as a cover layer for the previously prepared pan.
(§4) The plant species usually regarded as weeds which were utilized in one set of pre-emergent activity tests, the data for which are shown in Table A, are identified by letter headings printed diagonally above the columns according to the following legend: […]

Morningglory = details: Ipomoea, pre-emergence, Mogl, 11.2 kg/ha, 10-14 days, read-out: herbicidal rating (% inhibition)
Method: as §1, §2, §3, §4

Barnyardgrass = details: Echinochloa crus-galli, pre-emergence, Bygr, 11.2 kg/ha, 10-14 days, read-out: herbicidal rating (% inhibition)
Method: as §1, §2, §3, §4

Canada thistle = details: Cirsium arvense, pre-emergence, Cath, 11.2 kg/ha, 10-14 days, read-out: herbicidal rating (% inhibition)
Method: as §1, §2, §3, §4

Cocklebur = details: Xanthium strumarium, pre-emergence, Cobu, 11.2 kg/ha, 10-14 days, read-out: herbicidal rating (% inhibition)
Method: as §1, §2, §3, §4

Downy Brome = details: Bromus tectorum, pre-emergence, Dobr, 11.2 kg/ha, 10-14 days, read-out: herbicidal rating (% inhibition)
Method: as §1, §2, §3, §4

Yellow Nutsedge = details: Cyperus, pre-emergence, Yens, 11.2 kg/ha, 10-14 days, read-out: herbicidal rating (% inhibition)
Method: as §1, §2, §3, §4

Quackgrass = details: pre-emergence, Rhqg, 11.2 kg/ha, 10-14 days, read-out: herbicidal rating (% inhibition)
Method: as §1, §2, §3, §4

Common Lambsquarters = details: Chenopodium album, pre-emergence, Colq, 11.2 kg/ha, 10-14 days, read-out: herbicidal rating (% inhibition)
Method: as §1, §2, §3, §4

Pennsylvania Smartweed = details: pre-emergence, Pesw, 11.2 kg/ha, 10-14 days, read-out: herbicidal rating (% inhibition)
Method: as §1, §2, §3, §4

Rhizome Johnsongrass = details: Sorghum halepense, pre-emergence, Rhjg, 11.2 kg/ha, 10-14 days, read-out: herbicidal rating (% inhibition)
Method: as §1, §2, §3, §4

SMILES	inhibition at 11200 g/ha (Velvetleaf) [%]	inhibition at 11200 g/ha (Morningglory) [%]	inhibition at 11200 g/ha (Barnyardgrass) [%]	inhibition at 11200 g/ha (Canada thistle) [%]	inhibition at 11200 g/ha (Cocklebur) [%]	inhibition at 11200 g/ha (Downy Brome) [%]	inhibition at 11200 g/ha (Yellow Nutsedge) [%]	inhibition at 11200 g/ha (Quackgrass) [%]	inhibition at 11200 g/ha (Common Lambsquarters) [%]	inhibition at 11200 g/ha (Pennsylvania Smartweed) [%]	inhibition at 11200 g/ha (Rhizome Johnsongrass) [%]
COC(=O)c1c(C(F)(F)F)nc(OC)c(C2=NCCO2)c1CC(C)C [Compound 27, 3-pyridinecarboxylic acid, 5-(4,5-dihydro-2-oxazolyl)-6-methoxy-4-(2-methylpropyl)-2-(trifluoromethyl)-, methyl ester]	75 to 100	75 to 100	75 to 100	75 to 100	25 to 49	75 to 100	50 to 74	75 to 100	75 to 100	75 to 100	0 to 24
COC(=O)c1c(C(F)(F)F)nc(OC)c(C(=O)n2ccnc2)c1CC(C)C [Compound 28, 3-pyridinecarboxylic acid, 6-methoxy-4-(2-methylpropyl)-5-(1H-imidazo1-1-ylcarbonyl)-2-(trifluoromethyl)-, methyl ester]	25 to 49	50 to 74	75 to 100	0 to 24	75 to 100	75 to 100	0 to 24	0 to 24	75 to 100	50 to 74	0 to 24
CCOC(=O)c1c(OC)nc(C(F)(F)Cl)c(C(=O)OC)c1CC(C)C [Compound 29, 3,5-pyridinedicarboxylic acid, 2-(chlorodifluoromethyl)-6-methoxy-4-(2-methylpropyl)-, 5-ethyl 3-methyl ester]	75 to 100	75 to 100	75 to 100	0 to 24	0 to 24	75 to 100	25 to 49	75 to 100	75 to 100	75 to 100	25 to 49
COC(=O)c1c(OC)nc(C(F)F)c(C(=O)OC)c1CC(C)C [Compound 31, 3,5-pyridinedicarboxylic acid, 2-(difluoromethyl)-6-methoxy-4-(2-methylpropyl)-, dimethyl ester]	75 to 100	75 to 100	75 to 100	0 to 24	0 to 24	75 to 100	50 to 74	75 to 100	75 to 100	75 to 100	75 to 100
COC(=O)c1c(C(F)(F)F)nc(OC)c(C(=O)SC)c1CC(C)C [Compound 33, 3-pyridinecarboxylic acid, 6-methoxy-4-(2-methylpropyl)-5-[(methylthio)carbonyl]-2-(trifluoromethyl)-, methyl ester]	75 to 100	75 to 100	75 to 100	50 to 74	25 to 49	75 to 100	50 to 74	75 to 100	75 to 100	75 to 100	75 to 100
COC(=O)c1c(OC)nc(C(F)(F)F)c(C(=O)SC)c1CC(C)C [Compound 34, 3-pyridinecarboxylic acid, 2-methoxy-4-(2-methylpropyl)-5-[(methylthio)carbonyl]-6-(trifluoromethyl)-, methyl ester]	50 to 74	75 to 100	75 to 100	75 to 100	75 to 100	75 to 100	75 to 100	75 to 100	75 to 100	75 to 100	75 to 100

Source: US5391540A, “Substituted pyridine compounds” (Rohm and Haas Company, priority 1993, dated 1995)
